Tests used:
[1] = in vivo
Procedure: Holter monitoring will be obtained as indicated in the SOE. Blood and urine for PK and PD will be obtained and safety assessments will be performed. In addition, Cohort 3 (70 mg cohort) will have CSF obtained via lumbar puncture for PK assessment.

[2] = tested on: Pcca^−/−PCCA(A138T)^tg/0 mice; assay: Acyl-CoA in liver, brain and heart of Pcca−/−PCCA(A138T)tg/0 mice; format: in vivo; details: 22.5 ppm (3 mg/kg) in chow for 30 days after weaning
Procedure: Water was supplied ad libitum.
Acyl-CoA Measurements by Mass Spectrometry: Acyl-CoAs were quantified as described by Sharma et al., Nat. Commun. 2018; 9:4399. Briefly, 30-40 mg of tissue was homogenized in 2 mL methanol and 1 mL water and incubated on ice for 30 minutes. 1.5 mL of chloroform and 1.2 mL of water was added to remove the lipids. The aqueous top layer was collected and 30 pmol of [13C]acetyl-CoA (Sigma) was added and dried overnight in a speedvac.
Mass spectrometry of the acyl-CoA distribution was performed using a Finnigan TSQ Quantum (Thermo Electron) triple-quadrupole mass spectrometer. The instrument was operated in positive mode using single ion monitoring (SIM) neutral loss scanning corresponding to the loss of the phosphoadenosine diphosphate from CoA species. The ion source parameters were as follows: spray voltage, 4,000 V; capillary temperature, 250° C.; capillary offset, −35 V; sheath gas pressure, 10; auxiliary gas pressure, 5; and tube lens offset was set by infusion of the polytyrosine tuning and calibration in electrospray mode. Acquisition parameters were as follows: scan time, 0.5 s; collision energy, 30 V; peak width Q1 and Q3, 0.7 FWHM; Q2 CID gas, 0.5 mTorr; source CID, 10 V; neutral loss, 507.0 m/z; SIM mass of 810 m/z with a scan width of 8 m/z to capture the signal from cellular acetyl-CoA and the [13C]acetyl-CoA internal standard.

[3] = clinical; details: for half-life / AUC / Cmax / Tmax: human, plasma; for AUC: AUCtau; for AUC / Cmax: arithmetic mean
Excerpt: Following the screening period, eligible subjects will be admitted to the clinical unit on Day 1. All subjects will receive the study drug for 7 days starting on Day 1. […] Dosing frequency and any instructions regarding meal intake will depend on data from the SAD cohorts and will be provided in a separate document. The dosing duration may be increased to up to 14 days to allow for achievement of 3 half-lives. […] Subjects will return for an EOS visit on Day 15 or up to approximately 5 half-lives up to a maximum of Day 42 (whichever is longer).
The tentative starting dose for this portion of the study will be 30 mg daily. Dose escalation for Cohort 2 and beyond will be based on the safety, tolerability, and PK of the previous cohort. […] Planned doses for subsequent cohorts are 60, 120, 200, and 300 mg daily; the maximum dose increment between cohorts will be no more than 2 times the previous dose.

[4] = 60 mg, fed vs fasted
Procedure: All subjects will receive 2 doses of study drug in a crossover manner, separated by a washout period of 7 days or 5 half-lives up to 21 days (whichever is longer).
Study drug will then be administered along with a standardized high-calorie (approximately 800 to 1000 calories) breakfast. The meal will be ingested entirely within 30 minutes, and study drug will be administered 30 minutes after the start of the meal.

[5] = in vivo; details: dog
[6] = tested on: Pank1,2 neural knockout mice; assay: Body weight of Pank1,2 neural knockout mice; format: in vivo; details: 75 ppm in chow from postnatal day 14
Excerpt: (§1) Water was supplied ad libitum. Mice were maintained on a chow diet with purified ingredients containing 19% kcal protein, 66.5% kcal carbohydrate and 14.4% kcal fat (Envigo #TD170542) which was similar to standard rodent chow (LabDiet #5013). The mice were randomized into the treatment arms. […] However, this is an approximation, as SynCre^+Pank1^−/−Pank2^−/− mice both weigh less and eat less than wild-type mice. […] At the end of the dark cycle, individual mice were placed in an open rectangular arena (36.8 cm×43.2 cm) for 5 min during the light cycle and motor activity was evaluated using a video tracking system provided by HVS Image with associated 2100 Plus software (San Diego, CA, USA). Each animal was placed in the center of the arena under standard overhead lighting and the total distance traveled and the percentage of time in motion were recorded. The behaviors of age-matched control animals, treated with Compound (I) and untreated, were quantified and compared. […] Liver, forebrain and hindbrain were quickly excised, approximately 30-50 mg pieces were immediately flash frozen in liquid N2 and stored frozen at −80° C. until analysis. The plasma and tissue samples were used for Compound (I) and total CoA determinations.
Following analysis of movement, all animals were sacrificed at postnatal Day 45 for examination of tissue CoA levels.

[7] = tested on: Pank1,2 neural knockout mice; assay: Total forebrain CoA in Pank1,2 neural knockout mice; format: in vivo; details: 75 ppm in chow from postnatal day 14; assessed at postnatal day 45
Excerpt: as §1
Statistical significance was determined using a two-tailed Student's t test (GraphPad software) and P-values are shown about the bars, N=6-8. […]

[8] = in vivo; details: rat
[9] = Excerpt: Safety and tolerability endpoints will include monitoring and recording of AEs, clinical laboratory test results (hematology, serum chemistry, and urinalysis), vital sign measurements, 12-lead ECG results, and physical examination findings. The PA/MMA cohort will also be screened for suicidal ideation using the C-SSRS.
[10] = of all Compound (I) treated subjects

Question: Which “Blood brain barrier penetration” value [1] does the source give for `O=C(Cc1ccc(C2CC2)c(F)c1)N1CCN(c2ccc(Cl)nn2)CC1` [Compound (I), 1-(4-(6-chloropyridazin-3-yl)piperazin-1-yl)-2-(4-cyclopropyl-3-fluorophenyl)ethan-1-one] here?
Answer: Its value is “crossed the blood brain barrier”.

Question: And the “C2-CoA in liver, brain and heart” value [2]?
Answer: Its value is “rescued to wild-type levels”.

Question: What about the “Urinary excretion of Compound (I)” value ([3]; healthy subjects) of the same compound?
Answer: Its value is “negligible”.

Question: What about the half-life ([3]; oral) of the same compound?
Answer: Its half-life is 6 to 8 h.

Question: And the half-life ([3]; oral, 30 mg)?
Answer: The half-life was 7.55 h.

Question: And the AUC ([3]; oral, 30 mg, 30 mg QD, Day 1, AUC0-24)?
Answer: The AUC was 476 ng·h/mL.

Question: What about the AUC ([3]; oral, 30 mg, 30 mg QD, Day 7, AUC0-24) of the same compound?
Answer: Its AUC is 913 ng·h/mL.

Question: What about the Cmax ([3]; oral, 30 mg, 30 mg QD, Day 1) of the same compound?
Answer: The Cmax was 98.3 ng/mL.

Question: And the Cmax ([3]; oral, 30 mg, 30 mg QD, Day 7)?
Answer: The Cmax was 158 ng/mL.

Question: And the Tmax ([3]; oral, 30 mg, Tmax, 30 mg QD, Day 1, median)?
Answer: The Tmax was 1.5 h.

Question: And the Tmax ([3]; oral, 30 mg, Tmax, 30 mg QD, Day 7, median)?
Answer: Its Tmax is 1.5 h.

Question: And the AUC ([3]; oral, 50 mg, 50 mg Q12H, Day 1, AUC0-12)?
Answer: Its AUC is 925 ng·h/mL.

Question: What about the Cmax ([3]; oral, 50 mg, 50 mg Q12H, Day 1) of the same compound?
Answer: Its Cmax is 155 ng/mL.

Question: And the Tmax ([3]; oral, 50 mg, Tmax, 50 mg Q12H, Day 1, median)?
Answer: The Tmax was 1.5 h.

Question: What about the half-life ([3]; oral, 60 mg) of the same compound?
Answer: The half-life was 6.7 h.

Question: What about the AUC ([3]; oral, 60 mg, 60 mg QD, Day 1, AUC0-24) of the same compound?
Answer: The AUC was 1670 ng·h/mL.

Question: And the AUC ([3]; oral, 60 mg, 60 mg QD, Day 7, AUC0-24)?
Answer: Its AUC is 4050 ng·h/mL.

Question: And the Cmax ([3]; oral, 60 mg, 60 mg QD, Day 1)?
Answer: The Cmax was 240 ng/mL.

Question: And the Cmax ([3]; oral, 60 mg, 60 mg QD, Day 7)?
Answer: Its Cmax is 505 ng/mL.

Question: What about the Tmax ([3]; oral, 60 mg, Tmax, 60 mg QD, Day 1, median) of the same compound?
Answer: The Tmax was 1.75 h.

Question: What about the Tmax ([3]; oral, 60 mg, Tmax, 60 mg QD, Day 7, median) of the same compound?
Answer: Its Tmax is 2.01 h.

Question: What about the half-life ([3]; oral, 70 mg) of the same compound?
Answer: Its half-life is 6.83 h.

Question: And the AUC ([3]; oral, 70 mg, 70 mg QD, Day 7, AUC0-24)?
Answer: Its AUC is 2950 ng·h/mL.

Question: And the Cmax ([3]; oral, 70 mg, 70 mg QD, Day 1)?
Answer: The Cmax was 205 ng/mL.

Question: What about the Cmax ([3]; oral, 70 mg, 70 mg QD, Day 7) of the same compound?
Answer: Its Cmax is 400 ng/mL.

Question: And the Tmax ([3]; oral, 70 mg, Tmax, 70 mg QD, Day 1, median)?
Answer: Its Tmax is 1.5 h.

Question: What about the Tmax ([3]; oral, 70 mg, Tmax, 70 mg QD, Day 7, median) of the same compound?
Answer: Its Tmax is 1.5 h.

Question: What about the Tmax ([3]; po, Tmax after oral administration, healthy subjects, over cohorts) of the same compound?
Answer: The Tmax was 1 to 2 h.

Question: And the “Increase in exposure with dose” value ([3]; total daily dose increased from 30 mg to 100 mg)?
Answer: Its value is “more than dose-proportional”.

Question: And the “Delay of absorption by food” value [4]?
Answer: The value was about 2 h.

Question: And the “Increase in plasma exposure with food” value [4]?
Answer: The value was about 1.3 fold.

Question: What about the clearance ([5]; iv) of the same compound?
Answer: Its clearance is 16.9 mL/min/kg.

Question: What about the bioavailability ([5]; po) of the same compound?
Answer: The bioavailability was 29.8%.

Question: What about the “Body weight gain compared with untreated mice” value [6] of the same compound?
Answer: Its value is “significantly increased”.

Question: And the “Increase of forebrain CoA levels vs untreated mice” value [7]?
Answer: The value was about 70%.

Question: And the clearance ([8]; iv)?
Answer: Its clearance is 32.6 mL/min/kg.

Question: What about the bioavailability ([8]; po) of the same compound?
Answer: The bioavailability was 35.2%.

Question: And the Tolerability ([9]; 60 healthy adult subjects, Phase 1 study)?
Answer: Its Tolerability is “generally well-tolerated”.

Question: What about the “Mild treatment-related TEAE abdominal pain” value [9, 10] of the same compound?
Answer: The value was 1.7%.

Question: What about the “Mild treatment-related TEAE headache” value [9, 10] of the same compound?
Answer: The value was 5%.

Question: What about the “Mild treatment-related TEAE nausea” value [9, 10] of the same compound?
Answer: Its value is 1.7%.

Reference: patent US20260183283A1 (priority 2022, published 2026)
